Data as given in the NIST ThermoML archive (doi:10.1016/j.jct.2018.07.023).
Where “and” joins values, the source holds several entries; their conditions need not be identical. Equal values may be shown once.

Experiments:
[1] = molar enthalpy of vaporization or sublimation; settings: Static calorimetry
[2] = Molar enthalpy of transition or fusion; settings: Crystal; DSC

COc1cc(C=O)ccc1O [vanillin]
Settings	molar enthalpy [kcal/mol]	vapor or sublimation pressure
303.13 K, Crystal, Calculated from knudsen effusion weight loss	–	6.6e-05 kPa and 6.5e-05 kPa
305.32 K, Crystal, Calculated from knudsen effusion weight loss	–	8.9e-05 kPa and 8.8e-05 kPa
307.19 K, Crystal, Calculated from knudsen effusion weight loss	–	0.000112 kPa and 0.000113 kPa and 0.000114 kPa
309.13 K, Crystal, Calculated from knudsen effusion weight loss	–	0.000144 kPa and 0.000142 kPa and 0.000145 kPa
311.35 K, Crystal, Calculated from knudsen effusion weight loss	–	0.000185 kPa and 0.000182 kPa and 0.000187 kPa
313.2 K, Crystal, Calculated from knudsen effusion weight loss	–	0.000235 kPa and 0.000234 kPa and 0.000236 kPa
315.11 K, Crystal, Calculated from knudsen effusion weight loss	–	0.000292 kPa and 0.00029 kPa and 0.000294 kPa
317.29 K, Crystal, Calculated from knudsen effusion weight loss	–	0.000384 kPa and 0.000383 kPa
319.19 K, Crystal, Calculated from knudsen effusion weight loss	–	0.000472 kPa and 0.000474 kPa and 0.000478 kPa
320.95 K, Crystal, Closed cell (Static) method	–	0.00058 kPa
321.11 K, Crystal, Calculated from knudsen effusion weight loss	–	0.000597 kPa and 0.000586 kPa and 0.000599 kPa
322.92 K, Crystal, Closed cell (Static) method	–	0.00072 kPa
323.29 K, Crystal, Calculated from knudsen effusion weight loss	–	0.000759 kPa and 0.00075 kPa and 0.000765 kPa
324.92 K, Metastable liquid, Closed cell (Static) method	–	0.00192 kPa
324.98 K, Crystal, Closed cell (Static) method	–	0.00092 kPa
325.2 K, Crystal, Calculated from knudsen effusion weight loss	–	0.000955 kPa and 0.000953 kPa and 0.00094 kPa
326.9 K, Crystal, Closed cell (Static) method	–	0.00114 kPa
326.91 K, Metastable liquid, Closed cell (Static) method	–	0.00226 kPa
328.87 K, Metastable liquid, Closed cell (Static) method	–	0.00268 kPa
328.94 K, Crystal, Closed cell (Static) method	–	0.00143 kPa
330.87 K, Metastable liquid, Closed cell (Static) method	–	0.00316 kPa
330.89 K, Crystal, Closed cell (Static) method	–	0.00175 kPa
332.83 K, Metastable liquid, Closed cell (Static) method	–	0.00373 kPa
332.87 K, Crystal, Closed cell (Static) method	–	0.00215 kPa
334.8 K, Metastable liquid, Closed cell (Static) method	–	0.00439 kPa
334.84 K, Crystal, Closed cell (Static) method	–	0.00266 kPa
336.81 K, Metastable liquid, Closed cell (Static) method	–	0.00517 kPa
336.83 K, Crystal, Closed cell (Static) method	–	0.0033 kPa
338.81 K, Metastable liquid, Closed cell (Static) method	–	0.00609 kPa
338.83 K, Crystal, Closed cell (Static) method	–	0.00407 kPa
340.8 K, Metastable liquid, Closed cell (Static) method	–	0.00717 kPa
340.83 K, Crystal, Closed cell (Static) method	–	0.00502 kPa
342.78 K, Metastable liquid, Closed cell (Static) method	–	0.00834 kPa
342.8 K, Crystal, Closed cell (Static) method	–	0.0061 kPa
344.77 K, Crystal, Closed cell (Static) method	–	0.00747 kPa
344.79 K, Metastable liquid, Closed cell (Static) method	–	0.00978 kPa
346.69 K, Metastable liquid, Closed cell (Static) method	–	0.01123 kPa
346.73 K, Crystal, Closed cell (Static) method	–	0.00911 kPa
348.72 K, Crystal, Closed cell (Static) method	–	0.01103 kPa
348.73 K, Metastable liquid, Closed cell (Static) method	–	0.01314 kPa
350.68 K, Metastable liquid, Closed cell (Static) method	–	0.01523 kPa
350.7 K, Crystal, Closed cell (Static) method	–	0.01345 kPa
352.63 K, Metastable liquid, Closed cell (Static) method	–	0.01755 kPa
354.6 K, Metastable liquid, Closed cell (Static) method	–	0.02014 kPa
356.63 K, Closed cell (Static) method, Liquid	–	0.02334 kPa
358.57 K, Closed cell (Static) method, Liquid	–	0.02665 kPa
360.48 K, Closed cell (Static) method, Liquid	–	0.03073 kPa
362.45 K, Closed cell (Static) method, Liquid	–	0.03517 kPa
364.45 K, Closed cell (Static) method, Liquid	–	0.04012 kPa
366.47 K, Closed cell (Static) method, Liquid	–	0.04555 kPa
368.43 K, Closed cell (Static) method, Liquid	–	0.05205 kPa
370.37 K, Closed cell (Static) method, Liquid	–	0.05931 kPa
372.38 K, Closed cell (Static) method, Liquid	–	0.06765 kPa
374.32 K, Closed cell (Static) method, Liquid	–	0.07665 kPa
376.51 K, Closed cell (Static) method, Liquid	–	0.08673 kPa
378.22 K, Closed cell (Static) method, Liquid	–	0.09764 kPa
380.28 K, Closed cell (Static) method, Liquid	–	0.1104 kPa
382.26 K, Closed cell (Static) method, Liquid	–	0.1243 kPa
[1], 298.15 K, Crystal	23.8	–
[1], 375.81 K, Liquid	17.9	–

Settings	Normal melting temperature [°C]
Crystal, DTA	82.6

Settings	Molar enthalpy of transition or fusion [kcal/mol]
[2]	5.47
